Measurements reported in patent US20230265151A1, “GIP/GLP1 CO-AGONIST COMPOUNDS” (priority 2020, published 2023).
Where two headings read alike, the source gives them in different places.

How the values were obtained:
hGCGR = biological target: T1, hGCGR (Homo sapiens, UniProt P47871); experiment: Functional cAMP formation (HTRF) in HEK-293 clonal cells expressing hGCGR, 0.1% bovine casein, without or with 1.0% human serum albumin; assay type: cell-based; details: read-out: hGCGR EC50, nM (SEM, n)
T1 construct: expressed in transfected cells
Summary of the method: (§1)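 Readings of the HTRF 665/620 nm ratio, which falls as cAMP rises, were converted to nM cAMP using a standard curve after 30 min peptide exposure at 37° C.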

[1] = biological target: T2, human GLP-1 receptor (hGLP-1R) (Homo sapiens, UniProt P43220); experiment: [125I]-GLP-1 binding, SPA with membranes of HEK293 cells expressing hGLP-1R; details: human GLP-1R; geometric mean (SEM, n); read-out: Binding Affinity Ki, nM (SEM, n) hGLP-1R
T2 construct: expressed in transfected cells; crude membranes

hGLP-1R = hGLP-1R (Homo sapiens, UniProt P43220); experiment: Functional cAMP formation (HTRF) in HEK-293 clonal cells expressing hGLP-1R, 0.1% bovine casein, without or with 1.0% human serum albumin; assay type: cell-based; design: expressed in transfected cells; details: for EC50: cAMP, 0.1% bovine casein (no human serum albumin), geometric mean, read-out: hGLP-1R EC50, nM (SEM, n); for Emax: HEK293, cAMP, 0.1% bovine casein, percent of maximal response to GLP-1(7-36)NH2, arithmetic mean, read-out: hGLP-1R Emax, % ± SEM
Summary of the method: as §1

hGIPR = biological target: T3, hGIPR (Homo sapiens, UniProt P48546); experiment: Functional cAMP formation (HTRF) in HEK-293 clonal cells expressing hGIPR, 0.1% bovine casein, without or with 1.0% human serum albumin; assay type: cell-based; details: for Emax: read-out: hGIPR Emax, % ± SEM; for EC50: cAMP, 0.1% bovine casein (no human serum albumin), geometric mean, read-out: hGIPR EC50, nM (SEM, n)
T3 construct: expressed in transfected cells
T3 sequence (P48546 22-466): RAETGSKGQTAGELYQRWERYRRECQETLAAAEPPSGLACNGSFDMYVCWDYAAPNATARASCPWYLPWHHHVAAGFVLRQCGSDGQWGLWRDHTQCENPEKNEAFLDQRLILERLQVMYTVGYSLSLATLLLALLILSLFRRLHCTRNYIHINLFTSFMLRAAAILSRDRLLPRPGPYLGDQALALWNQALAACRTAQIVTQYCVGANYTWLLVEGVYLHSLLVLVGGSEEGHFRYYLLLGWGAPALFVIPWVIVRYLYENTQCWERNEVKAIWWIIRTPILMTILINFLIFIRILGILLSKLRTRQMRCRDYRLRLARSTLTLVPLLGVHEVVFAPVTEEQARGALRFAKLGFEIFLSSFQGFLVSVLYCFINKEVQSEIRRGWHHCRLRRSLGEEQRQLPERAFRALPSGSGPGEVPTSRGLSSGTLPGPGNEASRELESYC
Summary of the method: as §1

[2] = biological target: T4, human GIP receptor (hGIPR) (Homo sapiens, UniProt P48546); experiment: [125I]-GIP binding, SPA with membranes of CHO cells expressing hGIPR; details: human GIPR; geometric mean (SEM, n); read-out: Binding Affinity Ki, nM (SEM, n) hGIPR
T4 construct: expressed in transfected cells; crude membranes
T4 sequence (P48546 22-466): T3 sequence (P48546 22-466)

[3] = cAMP, 37° C., 0.1% bovine casein (no human serum albumin), geometric mean
[4] = cAMP, 37° C., 0.1% bovine casein and 1.0% human serum albumin, geometric mean (SEM, n)
[5] = HEK293, cAMP, 37° C., 0.1% bovine casein and 1.0% human serum albumin, percent of maximal response to GIP(1-42)NH2

T2 sequence (P43220 24-463): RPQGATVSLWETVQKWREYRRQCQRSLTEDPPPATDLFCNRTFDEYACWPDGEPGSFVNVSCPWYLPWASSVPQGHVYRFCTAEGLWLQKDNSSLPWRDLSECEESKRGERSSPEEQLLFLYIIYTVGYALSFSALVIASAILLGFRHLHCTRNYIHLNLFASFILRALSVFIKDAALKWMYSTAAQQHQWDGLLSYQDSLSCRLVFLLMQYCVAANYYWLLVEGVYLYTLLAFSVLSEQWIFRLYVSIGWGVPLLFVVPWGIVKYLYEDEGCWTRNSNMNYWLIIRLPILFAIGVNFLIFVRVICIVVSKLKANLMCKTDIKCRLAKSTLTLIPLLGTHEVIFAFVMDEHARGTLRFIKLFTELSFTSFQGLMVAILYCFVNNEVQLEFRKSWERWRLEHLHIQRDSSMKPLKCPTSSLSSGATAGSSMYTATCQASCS
Sequence of hGLP-1R (P43220 24-463): as above
T1 sequence (P47871 26-477): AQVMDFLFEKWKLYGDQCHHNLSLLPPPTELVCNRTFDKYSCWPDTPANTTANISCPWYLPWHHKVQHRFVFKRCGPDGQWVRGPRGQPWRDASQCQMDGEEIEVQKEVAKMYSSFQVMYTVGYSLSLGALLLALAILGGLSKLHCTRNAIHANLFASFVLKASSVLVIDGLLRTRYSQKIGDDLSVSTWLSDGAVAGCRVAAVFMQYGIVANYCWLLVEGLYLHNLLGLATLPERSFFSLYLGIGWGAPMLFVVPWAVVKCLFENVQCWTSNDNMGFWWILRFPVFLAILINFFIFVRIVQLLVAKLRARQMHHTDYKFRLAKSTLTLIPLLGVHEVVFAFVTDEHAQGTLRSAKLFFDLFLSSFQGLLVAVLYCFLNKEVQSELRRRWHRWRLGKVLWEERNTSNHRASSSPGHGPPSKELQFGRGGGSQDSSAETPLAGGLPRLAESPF

CC[C@H](C)[C@H](NC(=O)[C@H](CC(C)C)NC(=O)[C@](C)(Cc1ccc(O)cc1)NC(=O)[C@@H](CCC(=O)O)NC(=O)[C@@H](NC(=O)[C@H](Cc1cc(F)cc(F)c1)NC(=O)[C@H](CCC(=O)O)NC(=O)C(C)(C)NC(=O)[C@H](CCC(N)=O)NC(=O)[C@H](C)NC(=O)[C@H](CCCCNC(=O)COCCOCCNC(=O)COCCOCCNC(=O)CC[C@H](NC(=O)CCCCCCCCCCCCC(=O)O)C(=O)O)NC(=O)[C@H](CCCN)NC(=O)[C@H](CC(=O)O)NC(=O)[C@H](CC(C)C)NC(=O)[C@](C)(CC(C)C)NC(=O)[C@@H](NC(=O)[C@H](CO)NC(=O)[C@H](Cc1ccncc1)NC(=O)[C@H](CC(=O)O)NC(=O)[C@H](CO)NC(=O)[C@@H](NC(=O)[C@](C)(Cc1ccccc1F)NC(=O)[C@@H](NC(=O)CNC(=O)[C@H](CCC(=O)O)NC(=O)C(C)(C)NC(=O)[C@@H](N)Cc1ccc(O)cc1)[C@@H](C)O)[C@@H](C)O)[C@@H](C)CC)[C@@H](C)CC)C(=O)N[C@@H](CCC(=O)O)C(=O)NCC(=O)NCC(=O)N[C@@H](CCCCNC(=O)COCCOCCNC(=O)COCCOCCNC(=O)CC[C@H](NC(=O)CCCCCCCCCCCCC(=O)O)C(=O)O)C(=O)N[C@@H](CO)C(=O)N[C@@H](CO)C(=O)NCC(=O)N[C@@H](C)C(=O)N1CCC[C@H]1C(=O)N1CCC[C@H]1C(=O)N1CCC[C@H]1C(=O)N[C@@H](CO)C(N)=O [Example 65]
EC50 (hGCGR; 0.1% bovine casein and 1.0% human serum albumin, 37° C., geometric mean): > 9950 nM | EC50 (hGCGR; cAMP, incubated at 37° C., 0.1% bovine casein (no human serum albumin), geometric mean): > 9950 nM | Ki [1]: 1.05 nM | EC50 (hGLP-1R; incubated at 37° C.): 0.3 nM | Emax (hGIPR; HEK293, 0.1% bovine casein and 1.0% human serum albumin, 37° C., percent of maximal response to GIP(1-42)NH2): 93.8 ± 6.73% | Emax (hGIPR; HEK293, percent of maximal response to GIP(1-42)NH2, 37° C., 0.1% bovine casein, arithmetic mean): 95.2 ± 2.93% | EC50 (hGIPR; incubated at 37° C.): 0.0139 nM | Ki [2]: 0.121 nM

CC[C@H](C)[C@H](NC(=O)[C@H](CC(C)C)NC(=O)[C@](C)(Cc1ccc(O)cc1)NC(=O)[C@H](CCCCNC(=O)CCOCCOCCOCCNC(=O)CC[C@H](NC(=O)CCCCCCCCCCCCC(=O)O)C(=O)O)NC(=O)[C@@H](NC(=O)[C@H](Cc1ccccc1)NC(=O)[C@H](CCCN)NC(=O)C(C)(C)NC(=O)[C@H](CCC(N)=O)NC(=O)[C@H](C)NC(=O)[C@H](CCC(N)=O)NC(=O)[C@H](CCCN)NC(=O)[C@H](CC(=O)O)NC(=O)[C@H](CC(C)C)NC(=O)[C@](C)(CC(C)C)NC(=O)[C@@H](NC(=O)C(C)(C)NC(=O)[C@H](Cc1ccncc1)NC(=O)[C@H](CC(=O)O)NC(=O)[C@H](CO)NC(=O)[C@@H](NC(=O)[C@](C)(Cc1ccccc1F)NC(=O)[C@@H](NC(=O)CNC(=O)[C@H](CCC(=O)O)NC(=O)C(C)(C)NC(=O)[C@@H](N)Cc1ccc(O)cc1)[C@@H](C)O)[C@@H](C)O)[C@@H](C)CC)[C@@H](C)CC)C(=O)N[C@@H](CCCCNC(=O)CCOCCOCCOCCNC(=O)CC[C@H](NC(=O)CCCCCCCCCCCCC(=O)O)C(=O)O)C(=O)NCC(=O)NCC(=O)N1CCC[C@H]1C(=O)N[C@@H](CO)C(=O)N[C@@H](CO)C(=O)NCC(=O)N[C@@H](C)C(=O)N1CCC[C@H]1C(=O)N1CCC[C@H]1C(=O)N1CCC[C@H]1C(=O)N[C@@H](CO)C(N)=O [Example 458]
EC50 (hGCGR; [3]): > 9950 nM | EC50 (hGCGR; [4]): > 9950 nM | Ki [1]: 0.266 nM | Emax (hGLP-1R; 37° C.): 111% | EC50 (hGLP-1R; 37° C.): 0.179 nM | Emax (hGIPR; [5]): 93.1% | EC50 (hGIPR; 37° C.): 0.0121 nM | Ki [2]: 0.0232 nM

CC[C@H](C)[C@H](NC(=O)[C@H](CC(C)C)NC(=O)[C@](C)(Cc1ccc(O)cc1)NC(=O)[C@H](CCCCNC(=O)CCOCCOCCOCCOCCOCCOCCNC(=O)CC[C@H](NC(=O)CCCCCCCCCCCCC(=O)O)C(=O)O)NC(=O)[C@@H](NC(=O)[C@H](Cc1ccccc1)NC(=O)[C@H](CCCN)NC(=O)C(C)(C)NC(=O)[C@H](CCC(N)=O)NC(=O)[C@H](C)NC(=O)[C@H](CCC(N)=O)NC(=O)[C@H](CCCN)NC(=O)[C@H](CC(=O)O)NC(=O)[C@H](CC(C)C)NC(=O)[C@](C)(CC(C)C)NC(=O)[C@@H](NC(=O)C(C)(C)NC(=O)[C@H](Cc1ccncc1)NC(=O)[C@H](CC(=O)O)NC(=O)[C@H](CO)NC(=O)[C@@H](NC(=O)[C@](C)(Cc1ccccc1F)NC(=O)[C@@H](NC(=O)CNC(=O)[C@H](CCC(=O)O)NC(=O)C(C)(C)NC(=O)[C@@H](N)Cc1ccc(O)cc1)[C@@H](C)O)[C@@H](C)O)[C@@H](C)CC)[C@@H](C)CC)C(=O)N[C@@H](CCCCNC(=O)CCOCCOCCOCCOCCOCCOCCNC(=O)CC[C@H](NC(=O)CCCCCCCCCCCCC(=O)O)C(=O)O)C(=O)NCC(=O)NCC(=O)N1CCC[C@H]1C(=O)N[C@@H](CO)C(=O)N[C@@H](CO)C(=O)NCC(=O)N[C@@H](C)C(=O)N1CCC[C@H]1C(=O)N1CCC[C@H]1C(=O)N1CCC[C@H]1C(=O)N[C@@H](CO)C(N)=O [Example 466]
EC50 (hGCGR; [3]): > 10100 nM | EC50 (hGCGR; [4]): > 10100 nM | Ki [1]: 0.2 nM | Emax (hGLP-1R; 37° C.): 105% | EC50 (hGLP-1R; 37° C.): 0.156 nM | Emax (hGIPR; [5]): 93.4% | Emax (hGIPR; HEK293, cAMP, 37° C., 0.1% bovine casein, percent of maximal response to GIP(1-42)NH2, arithmetic mean): 98.8% | EC50 (hGIPR; 37° C.): 0.00971 nM | Ki [2]: 0.0199 nM

CCCCCCCCCCCC(=O)N[C@@H](CCC(=O)NCCOCCOCC(=O)NCCOCCOCC(=O)NCCOCCOCC(=O)NCCCC[C@H](NC(=O)[C@H](CCCN)NC(=O)[C@H](CC(=O)O)NC(=O)[C@H](CC(C)C)NC(=O)[C@](C)(CC(C)C)NC(=O)[C@@H](NC(=O)C(C)(C)NC(=O)[C@H](Cc1ccncc1)NC(=O)[C@H](CC(=O)O)NC(=O)[C@H](CO)NC(=O)[C@@H](NC(=O)[C@](C)(Cc1ccccc1F)NC(=O)[C@@H](NC(=O)CNC(=O)[C@H](CCC(=O)O)NC(=O)C(C)(C)NC(=O)[C@@H](N)Cc1ccc(O)cc1)[C@@H](C)O)[C@@H](C)O)[C@@H](C)CC)C(=O)N[C@@H](C)C(=O)N[C@@H](CCC(N)=O)C(=O)NC(C)(C)C(=O)N[C@@H](CCC(=O)O)C(=O)N[C@@H](Cc1ccccc1)C(=O)N[C@H](C(=O)N[C@H](CCC(=O)O)C(=O)N[C@@](C)(Cc1ccc(O)cc1)C(=O)N[C@@H](CC(C)C)C(=O)N[C@H](C(=O)N[C@@H](CCCCNC(=O)COCCOCCNC(=O)COCCOCCNC(=O)COCCOCCNC(=O)CC[C@H](NC(=O)CCCCCCCCCCC)C(=O)O)C(=O)NCC(=O)NCC(=O)N1CCC[C@H]1C(=O)N[C@@H](CO)C(=O)N[C@@H](CO)C(=O)NCC(=O)N[C@@H](C)C(=O)N1CCC[C@H]1C(=O)N1CCC[C@H]1C(=O)N1CCC[C@H]1C(=O)N[C@@H](CO)C(N)=O)[C@@H](C)CC)[C@@H](C)CC)C(=O)O [Example 423]
EC50 (hGCGR; [3]): > 9950 nM | EC50 (hGCGR; [4]): > 9950 nM | Ki [1]: 0.275 nM | Emax (hGLP-1R; 37° C.): 105% | EC50 (hGLP-1R; 37° C.): 0.0721 nM | Emax (hGIPR; [5]): 89.7% | EC50 (hGIPR; 37° C.): 0.00658 nM | Ki [2]: 0.0207 nM
